Here are results for 14 molecules from patent US6608085B1, “4-quinolinemethanol derivatives as purine receptor antagonists (II)” (Vernalis Research Limited, priority 1998, dated 2003).

Usually Ki stands for a dissociation constant, usually derived from enzyme kinetics or from competition with a known ligand.

Counter-ions that a name gives are not always drawn.

The assay deals with human adenosine A2A receptors (Homo sapiens, UniProt P29274). The assay can be described thus: Binding affinities at hA2A receptors, displacement of [3H]-CGS 21680. The conditions noted are these: displacement of radioligand [3H]-CGS 21680, in vitro. On the technique in general: Loss of bound radioactivity is the signal in a displacement assay; it reports binding, not function.
Sequence of human adenosine A2A receptors (P29274 whole entry): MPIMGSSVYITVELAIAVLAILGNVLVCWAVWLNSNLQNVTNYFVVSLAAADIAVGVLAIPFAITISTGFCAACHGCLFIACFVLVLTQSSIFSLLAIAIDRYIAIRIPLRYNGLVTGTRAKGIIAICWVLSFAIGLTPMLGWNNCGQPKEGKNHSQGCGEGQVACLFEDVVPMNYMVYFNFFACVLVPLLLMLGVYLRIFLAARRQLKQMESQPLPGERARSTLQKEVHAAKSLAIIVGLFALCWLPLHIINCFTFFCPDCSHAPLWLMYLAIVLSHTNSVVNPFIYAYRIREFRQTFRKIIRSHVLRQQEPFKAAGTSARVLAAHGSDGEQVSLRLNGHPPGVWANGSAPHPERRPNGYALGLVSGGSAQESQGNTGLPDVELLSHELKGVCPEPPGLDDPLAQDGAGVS
Molecule `CNCC(O)c1cc(C(F)(F)F)nc2c(C(F)(F)F)cccc12` (stereo not drawn) [Example 22, α-Methylaminomethyl-2,8-bis(trifluoromethyl)-4-quinolinemethanol] had a Ki of 1500 nM.

For the molecule `CC[C@H](C)[C@H](N)[C@@H](O)c1cc(C(F)(F)F)nc2c(C(F)(F)F)cccc12` [Example 40, (11S, 1′S, 2′S)-α-(1-Amino-2-methyl-1-butyl)-2,8-bis(trifluoromethyl)-4-quinolinemethanol Hydrochloride], the inhibitory constant (Ki) is 609 nM. The value for `O[C@H](c1cc(C(F)(F)F)nc2c(C(F)(F)F)cccc12)[C@@H]1CCCCN1Cc1ccccc1` [Example 9, (11R, 2′S)-α-(1-Benzyl-2-piperidinyl)-2,8-bis(trifluoromethyl)-4-quinolinemethanol] was 182 nM; that for `O=C1CO[C@H](c2cc(C(F)(F)F)nc3c(C(F)(F)F)cccc23)[C@@H]2CCCCN12` [Example 14, (1R, 9aS)-1,3,4,6,7,8,9,9a-Octahydro-1-(2,8-bis(trifluoromethyl)-4-quinolinyl)-pyrido[2,1-c][1,4]oxazine-4-one] was 1780 nM. The value for `FC(F)(F)c1cc([C@H]2OCN3CCCC[C@H]23)c2cccc(C(F)(F)F)c2n1` [Example 13, (1R, 8aR)-1,5,6,7,8,8a-Hexahydro-1-(2,8-bis(trifluoromethyl)-4-quinolinyl)-3H-oxazolo[3,4-a]pyridine] was 192 nM; that for `O[C@H](c1cc(C(F)(F)F)nc2c(C(F)(F)F)cccc12)[C@@H]1CCCN1` [Example 42, (11R, 2′S)-α-(2-pyrrolidinyl)-2,8-bis(trifuoromethyl)-4-quinolinemethanol Hydrochloride] was 462 nM; that for `CC(C)C[C@H](N)C(O)c1cc(C(F)(F)F)nc2c(C(F)(F)F)cccc12` (mixture of isomers) [Example 34, α-(-Amino-3-methylbutyl)-2,8-bis(trifluoromethyl)-4-quinolinemethanol] was 1210 nM. The value for `CC(C)(C)OC(=O)N1CCC[C@H]1[C@H](O)c1cc(C(F)(F)F)nc2c(C(F)(F)F)cccc12` [Example 43, (11R, 2′S)-α-(1-tert-Butoxycarbonyl-2-pyrrolidinyl)-2,8-bis(trifluoromethyl)-4-quinolinemethanol] was 2720 nM; that for `FC(F)(F)c1cc([C@H]2OCCN3CCCC[C@@H]23)c2cccc(C(F)(F)F)c2n1` [Example 15, (1R, 9aS)-1,3,4,6,7,8,9,9a-Octahydrol-(2,8-bis(trifluoromethyl)-4-quinolinyl)-pyrido[2,1-c][1,4]oxazine] was 1170 nM. `OC(CNCc1ccccc1)c1cc(C(F)(F)F)nc2c(C(F)(F)F)cccc12` (stereo not drawn) [Example 24, α-Benzylaminomethyl-2,8-bis(trifluoromethyl)-4-quinolinemethanol]: affinity was put at a Ki of 2450 nM. For `O[C@@H](c1cc(C(F)(F)F)nc2c(C(F)(F)F)cccc12)[C@@H]1CCCN1` [Example 45, (11S, 2′S)-α-(2-Pyrrolidinyl)-2,8-bis(trifluoromethyl)-4-quinolinemethanol Hydrochloride], the Ki was found to be 2060 nM. `O[C@H](c1cc(C(F)(F)F)nc2c(C(F)(F)F)cccc12)[C@@H]1CCCCN1CCc1ccccc1` [Example 38, (11S, 2′R)-α-(1-Phenethyl-2-piperidinyl)-2,8-bis(trifluoromethyl)-4-quinolinemethanol] showed a Ki of 906 nM.

As for `CO[C@H](c1cc(C(F)(F)F)nc2c(C(F)(F)F)cccc12)[C@@H]1CCCCN1` [Example 32, (1′R, 2S)-2-(α-Methoxy-2,8-bis(trifluoromethyl)-4-quinolinemethyl)piperidine Hydrochloride], the affinity corresponds to a Ki of 226 nM. As to `CO[C@H](c1cc(C(F)(F)F)nc2c(C(F)(F)F)cccc12)[C@@H]1CCCCN1C` [Example 8, (11R, 2′S)-4-(1-Methoxy-1-(1-methyl-2-piperidinyl)methyl)-2,8-bis(trifluoromethyl)quinoline], the affinity corresponds to a Ki of 419 nM.
